Measured values reported in US6689357B2, “Non-obligate predatory bacterium Burkholderia casidae and uses thereof” (Virginia Tech Intellectual Properties, Inc., priority 1997, dated 2004).
Values after ≈ are worked out from the molar mass of the structure shown.

Tested on: B. casidae strain 2.2N
Test: microbe, parasite or virus in culture
Assay type: cell-based, Burkholderia casidae
Settings: for MIC: Burkholderia, 2.2N, read-out: Minimal Inhibitory Concentration; for strain 2.2N resistant or susceptible to the antibiotic: Sceptor Pseudomonas/Resistant MIC Panel; for Minimal Inhibitory Concentration: against B. casidae strain 2.2N

Row | Molecule | MIC | strain 2.2N resistant or susceptible to the antibiotic | Minimal Inhibitory Concentration
1 | NCC[C@H](O)C(=O)N[C@@H]1C[C@H](N)[C@@H](O[C@H]2O[C@H](CN)[C@@H](O)[C@H](O)[C@H]2O)[C@H](O)[C@H]1O[C@H]1O[C@H](CO)[C@@H](O)[C@H](N)[C@H]1O [Amikacin] | > 64 µg/mL | resistant | 
2 | CCN1CCN(C(=O)N[C@@H](C(=O)N[C@@H]2C(=O)N3C(C(=O)O)=C(CSc4nnnn4C)CS[C@H]23)c2ccc(O)cc2)C(=O)C1=O [Cefoperazone] | > 16 µg/mL | resistant | 
3 | CO/N=C(\C(=O)N[C@@H]1C(=O)N2C(C(=O)O)=C(COC(C)=O)CS[C@H]12)c1csc(N)n1 [Cefotaxime] | 64 µg/mL (≈ 141 µM) | susceptible | 
4 | CC(C)(O/N=C(\C(=O)N[C@@H]1C(=O)N2C(C(=O)[O-])=C(C[n+]3ccccc3)CS[C@H]12)c1csc(N)n1)C(=O)O [Ceftazimine] |  | susceptible | 8 micrograms/ml
5 | CO/N=C(\C(=O)N[C@@H]1C(=O)N2C(C(=O)O)=CCS[C@H]12)c1csc(N)n1 [Ceftizoxime] | 16 µg/mL (≈ 41.7 µM) | susceptible | 
6 | CO/N=C(\C(=O)N[C@@H]1C(=O)N2C(C(=O)O)=C(CSc3nc(=O)c(=O)[nH]n3C)CS[C@H]12)c1csc(N)n1 [Ceftriaxone] | 128 µg/mL (≈ 231 µM) | susceptible | 
7 | C[C@@H](O)[C@H]1C(=O)N2C(C(=O)O)=C(SCCN=CN)C[C@H]12 [Imipenem] | 16 µg/mL (≈ 53.4 µM) |  | 
8 | CN(C)[C@@H]1C(O)=C(C(N)=O)C(=O)[C@@]2(O)C(O)=C3C(=O)c4c(O)cccc4[C@@](C)(O)[C@H]3C[C@@H]12 [Tetracycline] | > 8 µg/mL |  | 
9 | NC[C@H]1O[C@H](O[C@H]2[C@H](O)[C@@H](O[C@H]3O[C@H](CO)[C@@H](O)[C@H](N)[C@H]3O)[C@H](N)C[C@@H]2N)[C@H](N)C[C@@H]1O [Tobramycin] | > 16 µg/mL | resistant | 
10 | O=C(O)c1cn(C2CC2)c2cc(N3CCNCC3)c(F)cc2c1=O [ciprofloxacin] |  | susceptible | 
11 | Gentamycin |  | resistant | >16 micrograms/ml
12 | Tricarcillin/Clavulinic Acid |  | resistant | >128/2
13 | Trimethoprim/Sulfamethoxazole |  | susceptible | 4/76
